{"source": "ChEMBL document CHEMBL6092192", "about": "(J Med Chem, 2024)", "key": {"[1]": {"assay": "Oral bioavailability in 12 hrs fasted Sprague-Dawley rat at 10 mg/kg measured upto 720 mins by HPLC-MS/MS analysis", "format": "ADME, organism-based", "settings": "in vivo"}, "[2]": {"assay": "Tmax in 12 hrs fasted Sprague-Dawley rat at 1 mg/kg, iv measured upto 720 mins by HPLC-MS/MS analysis", "format": "ADME, organism-based", "settings": "in vivo"}, "[3]": {"system": "CD8-positive T cell", "assay": "Activation of immune response in human CD8-positive T cell assessed as increase in granzyme level at 4 uM by ELISA method", "format": "functional, cell-based"}, "[4]": {"assay": "AUC (0 to infinity) in 12 hrs fasted Sprague-Dawley rat at 10 mg/kg, po measured upto 720 mins by HPLC-MS/MS analysis", "format": "ADME, organism-based", "settings": "in vivo"}, "[5]": {"assay": "Toxicity in BALB/c nude mouse xenografted with […] CT26/TAXOL cells assessed as effect on lung at 100 mg/kg/day, IG measured after 14 days by H and E staining based analysis", "format": "organism-based", "settings": "in vivo, po, 336 h, time 14 day"}, "[6]": {"assay": "Toxicity in BALB/c nude mouse xenografted with […] CT26/TAXOL cells assessed as mortality at 100 mg/kg/day, IG measured upto 14 days in presence of paclitaxel", "format": "organism-based", "settings": "in vivo, po, 336 h, time < 14 day"}, "[7]": {"system": "CT26/TAXOL", "assay": "Antitumor T-cell immune response in […] cells xenografted in BALB/c nude mouse model assessed as reduction in tumor growth at 100 mg/kg/day, IG measured after 14 days", "format": "functional, organism-based", "settings": "time 14.0 day"}, "[8]": {"system": "SW620/AD300", "assay": "Reversal of paclitaxel resistance in human SW620/AD300 cells assessed as reversal fold by measuring ratio of paclitaxel IC50 to paclitaxel IC50 in presence of test compound at 2 uM incubated for 72 hrs by MTT assay", "format": "functional"}, "[9]": {"system": "HEK293", "assay": "Cytotoxicity against HEK293 cells harbouring ABCB1 assessed as survival rate at 2 uM measured after 72 hrs by MTT assay relative to control", "format": "functional", "settings": "Homo sapiens, read-out: Survival"}, "[10]": {"molecular_target": "hERG (KCNH2) (Homo sapiens, UniProt Q12809)", "sequence (Q12809 whole entry)": "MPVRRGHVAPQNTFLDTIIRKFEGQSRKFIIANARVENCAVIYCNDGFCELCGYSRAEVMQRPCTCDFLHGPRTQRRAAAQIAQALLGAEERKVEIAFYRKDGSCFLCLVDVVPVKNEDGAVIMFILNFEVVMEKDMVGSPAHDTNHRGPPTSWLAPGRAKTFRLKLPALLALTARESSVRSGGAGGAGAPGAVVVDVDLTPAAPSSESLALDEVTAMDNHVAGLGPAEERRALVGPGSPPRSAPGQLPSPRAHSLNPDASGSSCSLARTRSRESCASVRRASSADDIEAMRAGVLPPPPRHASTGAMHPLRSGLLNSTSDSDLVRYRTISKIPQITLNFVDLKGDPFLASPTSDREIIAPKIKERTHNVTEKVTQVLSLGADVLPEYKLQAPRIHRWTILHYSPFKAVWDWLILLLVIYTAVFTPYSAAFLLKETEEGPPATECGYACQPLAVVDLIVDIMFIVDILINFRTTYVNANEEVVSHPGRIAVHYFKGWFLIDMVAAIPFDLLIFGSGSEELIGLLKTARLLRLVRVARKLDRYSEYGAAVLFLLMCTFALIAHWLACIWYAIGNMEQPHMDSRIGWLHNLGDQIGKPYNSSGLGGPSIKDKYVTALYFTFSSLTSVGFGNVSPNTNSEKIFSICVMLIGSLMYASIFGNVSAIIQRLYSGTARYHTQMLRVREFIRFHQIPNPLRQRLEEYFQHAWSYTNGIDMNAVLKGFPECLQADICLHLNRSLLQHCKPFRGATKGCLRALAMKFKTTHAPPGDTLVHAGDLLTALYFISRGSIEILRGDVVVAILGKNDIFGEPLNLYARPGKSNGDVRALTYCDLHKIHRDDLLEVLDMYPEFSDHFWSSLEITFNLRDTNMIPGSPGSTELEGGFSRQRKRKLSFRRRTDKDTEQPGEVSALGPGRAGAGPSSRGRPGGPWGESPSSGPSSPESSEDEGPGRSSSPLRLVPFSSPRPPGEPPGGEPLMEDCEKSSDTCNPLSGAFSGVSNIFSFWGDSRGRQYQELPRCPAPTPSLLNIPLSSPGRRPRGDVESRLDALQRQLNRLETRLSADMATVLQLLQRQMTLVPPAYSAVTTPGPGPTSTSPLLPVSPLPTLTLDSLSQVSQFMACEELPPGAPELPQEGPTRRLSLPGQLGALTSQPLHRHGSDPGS", "assay": "Inhibition of human ERG expressed in CHO cells at 40 uM by QPatch assay relative to control", "format": "toxicity, cell-based", "settings": "CHO cells expressing human ERG"}, "[11]": {"assay": "MRT (0 to t) in 12 hrs fasted Sprague-Dawley rat at 1 mg/kg, iv measured upto 720 mins by HPLC-MS/MS analysis", "format": "ADME, organism-based", "settings": "in vivo"}, "[12]": {"system": "CD8-positive T cell", "assay": "Activation of immune response in human CD8-positive T cell assessed as increase in IFN-gamma level at 4 uM by ELISA method", "format": "functional, cell-based"}, "[13]": {"assay": "MRT (0 to t) in 12 hrs fasted Sprague-Dawley rat at 10 mg/kg, po measured upto 720 mins by HPLC-MS/MS analysis", "format": "ADME, organism-based", "settings": "in vivo"}, "[14]": {"system": "SW620/AD300", "assay": "Cytotoxicity against multidrug resistant human SW620/AD300 cells assessed as survival rate at 2 uM measured after 72 hrs by MTT assay relative to control", "format": "functional", "settings": "read-out: Survival"}, "[15]": {"assay": "Toxicity in BALB/c nude mouse xenografted with […] CT26/TAXOL cells assessed as effect on brain at 100 mg/kg/day, IG in presence of paclitaxel/anti-PD-1 measured after 14 days by H and E staining based analysis", "format": "organism-based", "settings": "in vivo, po, 336 h, time 14 day"}, "[16]": {"molecular_target": "Cytochrome P450 3A4 (Homo sapiens, UniProt P08684)", "sequence (P08684 whole entry)": "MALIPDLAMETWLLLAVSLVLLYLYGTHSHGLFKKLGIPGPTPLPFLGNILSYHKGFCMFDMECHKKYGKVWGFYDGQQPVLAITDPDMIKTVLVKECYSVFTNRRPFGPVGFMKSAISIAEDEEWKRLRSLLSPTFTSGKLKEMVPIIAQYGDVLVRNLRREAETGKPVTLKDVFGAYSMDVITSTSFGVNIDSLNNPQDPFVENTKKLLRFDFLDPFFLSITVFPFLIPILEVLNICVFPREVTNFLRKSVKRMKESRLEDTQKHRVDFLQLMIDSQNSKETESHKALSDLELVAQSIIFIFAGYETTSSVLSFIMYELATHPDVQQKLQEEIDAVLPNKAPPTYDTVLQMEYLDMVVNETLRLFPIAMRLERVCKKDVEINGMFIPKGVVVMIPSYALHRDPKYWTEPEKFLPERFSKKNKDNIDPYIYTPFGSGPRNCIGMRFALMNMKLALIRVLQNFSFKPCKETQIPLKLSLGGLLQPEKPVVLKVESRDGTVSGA", "assay": "Activation of recombinant CYP3A4 in human liver microsomes at 30 uM measured upto 40 mins in presence of NADPH generating system by fluorescence based analysis", "format": "ADME, Microsome"}, "[17]": {"system": "CD8-positive T cell", "assay": "Activation of immune response in human CD8-positive T cell assessed as increase in perforin level at 4 uM by ELISA method", "format": "functional, cell-based"}, "[18]": {"system": "KB 3-1", "assay": "Cytotoxicity against human KB 3-1 cells assessed as survival rate at 5 uM measured after 72 hrs by MTT assay relative to control", "format": "functional", "settings": "read-out: Survival"}, "[19]": {"system": "SW620/AD300", "assay": "Antitumor activity against human SW620/AD300 cells xenografted in male BALB/c nude mouse model assessed as nuclear pyknosis at 100 mg/kg/day, IG in presence of paclitaxel by H and E staining based analysis", "format": "functional, organism-based"}, "[20]": {"assay": "Toxicity in BALB/c nude mouse assessed as change in body weight at 100 mg/kg/day, IG measured after 21 days in presence of paclitaxel", "format": "organism-based", "settings": "in vivo, po, 504 h, time 21 day"}, "[21]": {"assay": "Toxicity in BALB/c nude mouse xenografted with […] CT26/TAXOL cells assessed as effect on liver at 100 mg/kg/day, IG measured after 14 days by H and E staining based analysis", "format": "organism-based", "settings": "in vivo, po, 336 h, time 14 day"}, "[22]": {"assay": "Toxicity in BALB/c nude mouse assessed as effect on liver liver injury at 100 mg/kg/day, IG measured after 21 days in presence of paclitaxel by H and E staining based analysis", "format": "organism-based", "settings": "in vivo, po, 504 h, time 21 day"}, "[23]": {"assay": "Toxicity in BALB/c nude mouse xenografted with […] CT26/TAXOL cells assessed as change in body weight at 100 mg/kg/day, IG measured upto 14 days in presence of paclitaxel", "format": "organism-based", "settings": "in vivo, po, 336 h, time < 14 day"}, "[24]": {"assay": "Toxicity in Sprague-Dawley rat assessed as change in body weight at 250 to 1000 mg/kg, po measured for 14 days administered as single dose", "format": "organism-based", "settings": "in vivo, 336 h, dose 250-1000 mg/kg, time 14 day"}, "[25]": {"assay": "AUC (0 to t) in 12 hrs fasted Sprague-Dawley rat at 1 mg/kg, iv measured upto 720 mins by HPLC-MS/MS analysis", "format": "ADME, organism-based", "settings": "in vivo"}, "[26]": {"assay": "Reversal of paclitaxel resistance in HEK293 cells harbouring ABCB1 assessed as reversal fold by measuring ratio of paclitaxel IC50 to paclitaxel IC50 in presence of test compound at 2 uM incubated for 72 hrs by MTT assay", "format": "functional, Homo sapiens"}, "[27]": {"assay": "Toxicity in BALB/c nude mouse xenografted with […] CT26/TAXOL cells assessed as effect on lung at 100 mg/kg/day, IG in presence of paclitaxel measured after 14 days by H and E staining based analysis", "format": "organism-based", "settings": "in vivo, po, 336 h, time 14 day"}, "[28]": {"molecular_target": "ATP-dependent translocase ABCB1 (Homo sapiens, UniProt P08183)", "sequence (P08183 whole entry)": "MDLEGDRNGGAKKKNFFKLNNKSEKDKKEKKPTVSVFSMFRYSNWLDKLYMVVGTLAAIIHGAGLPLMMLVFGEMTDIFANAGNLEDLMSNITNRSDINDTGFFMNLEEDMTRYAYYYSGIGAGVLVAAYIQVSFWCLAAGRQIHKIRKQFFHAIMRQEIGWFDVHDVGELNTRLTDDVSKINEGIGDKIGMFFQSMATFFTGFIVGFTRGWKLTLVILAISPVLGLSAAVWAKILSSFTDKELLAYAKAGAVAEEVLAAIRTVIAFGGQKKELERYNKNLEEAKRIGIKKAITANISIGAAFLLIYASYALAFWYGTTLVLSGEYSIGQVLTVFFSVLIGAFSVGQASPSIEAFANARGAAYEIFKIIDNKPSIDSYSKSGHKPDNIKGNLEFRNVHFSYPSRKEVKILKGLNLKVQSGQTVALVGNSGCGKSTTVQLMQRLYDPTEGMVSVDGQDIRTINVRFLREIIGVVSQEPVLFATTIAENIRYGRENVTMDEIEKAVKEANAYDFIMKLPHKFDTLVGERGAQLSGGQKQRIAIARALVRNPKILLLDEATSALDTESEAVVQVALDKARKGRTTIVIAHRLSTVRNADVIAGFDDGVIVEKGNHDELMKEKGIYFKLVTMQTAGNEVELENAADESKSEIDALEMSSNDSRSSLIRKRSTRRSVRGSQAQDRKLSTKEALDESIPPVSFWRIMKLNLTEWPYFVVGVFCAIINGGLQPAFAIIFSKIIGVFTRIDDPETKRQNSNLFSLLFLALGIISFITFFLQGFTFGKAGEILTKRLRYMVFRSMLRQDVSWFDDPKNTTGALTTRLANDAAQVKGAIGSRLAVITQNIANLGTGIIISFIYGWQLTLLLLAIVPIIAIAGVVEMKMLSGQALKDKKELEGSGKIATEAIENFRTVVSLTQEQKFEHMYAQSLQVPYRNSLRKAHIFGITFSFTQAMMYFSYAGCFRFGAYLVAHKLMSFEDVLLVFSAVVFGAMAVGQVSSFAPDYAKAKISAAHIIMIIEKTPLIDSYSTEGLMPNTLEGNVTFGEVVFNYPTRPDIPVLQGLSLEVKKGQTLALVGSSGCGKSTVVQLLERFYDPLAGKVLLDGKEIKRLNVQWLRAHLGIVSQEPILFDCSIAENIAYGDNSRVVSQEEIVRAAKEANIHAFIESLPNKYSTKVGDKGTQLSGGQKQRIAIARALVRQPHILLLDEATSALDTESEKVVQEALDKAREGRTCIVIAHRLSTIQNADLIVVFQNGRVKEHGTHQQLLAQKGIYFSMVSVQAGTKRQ", "assay": "Activation of ABCB1 ATPase activity (unknown origin) infected in insect cells by measuring fold change at upto 40 uM incubated for 20 mins in presence of Mg-ATP by spectrophotometric analysis", "settings": "Insect cell, read-out: FC"}, "[29]": {"assay": "Toxicity in BALB/c nude mouse xenografted with […] CT26/TAXOL cells assessed as effect on kidney at 100 mg/kg/day, IG in presence of paclitaxel measured after 14 days by H and E staining based analysis", "format": "organism-based", "settings": "in vivo, po, 336 h, time 14 day"}, "[30]": {"system": "SW-620", "assay": "Reversal of paclitaxel resistance in human SW620 cells assessed as reversal fold by measuring ratio of paclitaxel IC50 to paclitaxel IC50 in presence of test compound at 2 uM incubated for 72 hrs by MTT assay", "format": "functional"}, "[31]": {"assay": "Cmax in 12 hrs fasted Sprague-Dawley rat at 10 mg/kg, po measured upto 720 mins by HPLC-MS/MS analysis", "format": "ADME, organism-based", "settings": "in vivo"}, "[32]": {"assay": "Toxicity in BALB/c nude mouse xenografted with […] CT26/TAXOL cells assessed as effect on heart at 100 mg/kg/day, IG in presence of paclitaxel measured after 14 days by H and E staining based analysis", "format": "organism-based", "settings": "in vivo, po, 336 h, time 14 day"}}, "note": "The source made the active and inactive calls. The calls are words filed in the database; no cut-off is given here."}
{"smiles": "O=c1c2c([nH]c3nc(SCc4nc5ccccc5s4)nn13)CCC2", "values": [{"measurement": "bioavailability", "setting": "[1]", "result": 63.9, "unit": "%"}, {"measurement": "Tmax", "setting": "[2]", "result": 4.98, "unit": "min"}, {"measurement": "Activity", "setting": "[3]", "result": "Active"}, {"measurement": "AUC(0-inf)", "setting": "[4]", "result": 5840, "unit": "ng·h/mL"}, {"measurement": "Activity", "setting": "[5]", "result": "Non-toxic"}, {"measurement": "Activity", "setting": "[6]", "result": "Non-toxic"}, {"measurement": "Activity", "setting": "[7]", "result": "Not active; Compound Showed Negligible Effect"}, {"measurement": "Ratio IC50", "setting": "[8]", "result": 168.91}, {"measurement": "viability at 2 µM", "setting": "[9]", "result": 98.2, "unit": "%"}, {"measurement": "inhibition at 40 µM", "setting": "[10]", "result": 32, "unit": "%"}, {"measurement": "MRT last at 12 h", "setting": "[11]", "result": 4.42, "unit": "h"}, {"measurement": "Activity", "setting": "[12]", "result": "Active"}, {"measurement": "MRT last at 12 h", "setting": "[13]", "result": 6.87, "unit": "h"}, {"measurement": "viability at 2 µM", "setting": "[14]", "result": 98.5, "unit": "%"}, {"measurement": "Activity", "setting": "[15]", "result": "Non-toxic"}, {"measurement": "Activity", "setting": "[16]", "result": "Active"}, {"measurement": "Activity", "setting": "[17]", "result": "Active"}, {"measurement": "viability at 5 µM", "setting": "[18]", "result": 95.9, "unit": "%"}, {"measurement": "Activity", "setting": "[19]", "result": "Active"}, {"measurement": "Activity", "setting": "[20]", "result": "Non-toxic"}, {"measurement": "Activity", "setting": "[21]", "result": "Non-toxic"}, {"measurement": "Activity", "setting": "[22]", "result": "Non-toxic"}, {"measurement": "Activity", "setting": "[23]", "result": "Non-toxic"}, {"measurement": "Activity", "setting": "[24]", "result": "Non-toxic"}, {"measurement": "AUC(0-t) at 12 h", "setting": "[25]", "result": 880, "unit": "ng·h/mL"}, {"measurement": "Ratio IC50", "setting": "[26]", "result": 7.82}, {"measurement": "Activity", "setting": "[27]", "result": "Non-toxic"}, {"measurement": "fold induction at up to 40 µM", "setting": "[28]", "result": 2.5}, {"measurement": "Activity", "setting": "[29]", "result": "Non-toxic"}, {"measurement": "Ratio IC50", "setting": "[30]", "result": 1.01}, {"measurement": "Cmax", "setting": "[31]", "result": 504, "unit": "ng/mL"}, {"measurement": "Activity", "setting": "[32]", "result": "Non-toxic"}]}
